Results taken from US20250084453A1, “SYSTEMS, COMPOSITIONS AND METHODS FOR IDENTIFYING E3 LIGASE SUBSTRATES BY UBIQUITIN BIOTINYLATION” (The Broad Institute, Inc., priority 2022, published 2025).

System: CRBN E3 ligase
Assay: Mass spectrometry of streptavidin pulldown of biotinylated ubiquitinated proteins, CRBN-BirA 293T cells with Avi-Ub or A3-Ub
Format: cell-based, human
Description: The cells were either treated or untreated with carfilzomib (0.4 μM) for 1 hour and were either treated or untreated with the CRBN-IMiD modifying agent CC-885 (1 μM) for another hour. […] As discussed above in Example 1, the GSPT1 substrate of BirA-tagged CRBN is expressed endogenously in 293T cells.
For such MS analyses, 50 μl of resuspended streptavidin beads were incubated with 1 ml of cell lysates (3 mg/ml) at 4° C. overnight. On the next day, the beads were pelleted (400×g, 1 minute), washed two times with 2% SDS (2% SDS, 25 mM Tris-HCl pH 7.5), and then washed three times with 6M urea (6M urea, 50 mM Tris-HCl pH 8). Each wash was performed by rotating the samples at room temperature for at least five minutes. Following the washes, the beads were resuspended in 90 μl of 2M urea, to which 10 μl of 0.1M TCEP (tris(2-carboxyethyl)phosphine, reducing agent) was added for a final concentration of 10 mM TCEP. The samples were agitated at 37° C. for 30 minutes to allow for protein reduction. Next, 10 μl of 0.165 M IAA, (iodoacetamide, alkylating agent) was added to a final concentration of 15 mM IAA. The samples were agitated in the dark at room temperature for 45 minutes. Thereafter, 1 μg of trypsin/LysC (Promega, Trypsin/Lys-C Mix, Mass Spec Grade, V5071) was added to each sample, and the samples were agitated for 3-4 hours at 37° C. Subsequently, 0.5 μg of trypsin/LysC (Promega, Trypsin/Lys-C Mix, Mass Spec Grade, V5071) was added to each sample, and the samples were agitated overnight at 37° C. On the next day, the supernatant containing the digested peptides was collected. The beads were washed two times with HPLC-grade water and were combined with the previously collected supernatant. Samples were centrifuged at 21,000×g for 10 minutes, and the clarified supernatant at the top was saved. Samples were acidified by the addition of 50% formic acid to a final concentration of 2%. Samples were vacuum dried (Speedvac) overnight and kept at −80° C. until ready for analysis by MS. […]
The preparation of cellular lysate was as described above for Cell Lysis, except that the RIPA buffer was supplemented with COMPLETE™ EDTA-free protease inhibitor cocktail (Roche; 04693159001; 1 tablet per 10 ml of buffer), benzonase (Millipore; E1014; 1 μl per 10 ml of buffer), 1.5 mM MgCl2, 1 mM EGTA, and 10 mM NEM (N-ethylmaleimide). For each sample, 1 ml of 3 mg/ml lysate was rotated overnight at 4° C. with 50 μl of resuspended streptavidin Sepharose beads (CYTIVA™; 17511301), which were pre-washed with RIPA lysis buffer 3 times. For all steps that required pelleting of beads, centrifugation was performed at 400×g for 1 minute. On the next day, streptavidin beads were pelleted, and the supernatant (a.k.a. flow-through) was either saved for analysis by Western blotting or was discarded.

[1] = Table 3 (head Avi-, text A3-Ub), DMSO 0
[2] = Table 3 (head Avi-, text A3-Ub), DMSO 3
[3] = Table 3 (head Avi-, text A3-Ub), DMSO 5
[4] = Table 3 (head Avi-, text A3-Ub), DMSO 6
[5] = Table 3 (head Avi-, text A3-Ub), DMSO 7
[6] = Table 3 (head Avi-, text A3-Ub), DMSO 9
[7] = Table 3 (head Avi-, text A3-Ub), DMSO 15

## Cc1ccc(NC(=O)NCc2ccc3c(c2)CN(C2CCC(=O)NC2=O)C3=O)cc1Cl (stereo not drawn) [CC-885]
A3-Ub, triplicates, log2 FC and p-value (limma), FIG. 9
  Most upregulated proteins in streptavidin pulldown versus DMSO: GSPT1 and GSPT2
Table 2, Avi-Ub, DMSO 0
  # of PSMs, GSPT1: 25
  # of PSMs, GSPT2: 13
Table 2, Avi-Ub, DMSO 9
  # of PSMs, POLR2A: 11
Table 2, Avi-Ub, DMSO 10
  # of PSMs, PSMD4: 11
  # of PSMs, VCL: 56
Table 2, Avi-Ub, DMSO 12
  # of PSMs, SMC1A: 13
Table 2, Avi-Ub, DMSO 14
  # of PSMs, H2AFV: 14
Table 2, Avi-Ub, DMSO 15
  # of PSMs, CTNNA1: 12
Table 2, Avi-Ub, DMSO 16
  # of PSMs, gene symbol printed as image P00007: 18
Table 2, Avi-Ub, DMSO 17
  # of PSMs, DYNC1H1: 13
  # of PSMs, RPS3: 21
Table 2, Avi-Ub, DMSO 18
  # of PSMs, HSPA1B; HSPA1A: 18
Table 2, Avi-Ub, DMSO 19
  # of PSMs, HIST2H2AC: 18
  # of PSMs, UBE2K: 17
Table 2, Avi-Ub, DMSO 20
  # of PSMs, CTNNB1: 15
  # of PSMs, HSPA8: 13
  # of PSMs, MCCC1: 16
  # of PSMs, PRPF8: 19
  # of PSMs, UBE2N: 14
  # of PSMs, VCP: 11
Table 2, Avi-Ub, DMSO 21
  # of PSMs, DSP: 14
  # of PSMs, gene symbol printed as image P00006: 13
Table 2, Avi-Ub, DMSO 22
  # of PSMs, EEF2: 13
  # of PSMs, HSP90AB1: 15
  # of PSMs, gene symbol printed as image P00001: 15
  # of PSMs, gene symbol printed as image P00003: 14
Table 2, Avi-Ub, DMSO 23
  # of PSMs, AMOT: 19
Table 2, Avi-Ub, DMSO 24
  # of PSMs, HSP90AA1: 13
  # of PSMs, PRKDC: 17
Table 2, Avi-Ub, DMSO 28
  # of PSMs, FASN: 17
Table 2, Avi-Ub, DMSO 32
  # of PSMs, USP9X: 21
Table 2, Avi-Ub, DMSO 34
  # of PSMs, UBA1: 31
  # of PSMs, gene symbol printed as image P00004: 30
Table 2, Avi-Ub, DMSO 36
  # of PSMs, gene symbol printed as image P00005: 29
Table 2, Avi-Ub, DMSO 37
  # of PSMs, UBE2O: 23
Table 2, Avi-Ub, DMSO 39
  # of PSMs, UBA6: 37
  # of PSMs, gene symbol printed as image P00002: 33
Table 2, Avi-Ub, DMSO 45
  # of PSMs, PCCA: 41
Table 2, Avi-Ub, DMSO 60
  # of PSMs, ACACA: 52
Table 2, Avi-Ub, DMSO 116
  # of PSMs, PC: 104
[1]
  # of PSMs, ACACB: 17
  # of PSMs, GSPT1: 30
  # of PSMs, GSPT2: 20
  # of PSMs, HIST1H1D: 5
  # of PSMs, VCL: 9
[2]
  # of PSMs, CCDC144A: 10
  # of PSMs, DDX5: 5
[3]
  # of PSMs, HIST2H2BF: 5
  # of PSMs, SPEN: 9
[4]
  # of PSMs, HIST2H2BE: 6
  # of PSMs, THAP5: 7
  # of PSMs, gene symbol printed as image P00009: 6
[5]
  # of PSMs, CCT8: 14
  # of PSMs, EEF1A1: 6
  # of PSMs, EEF2: 5
  # of PSMs, ENO1: 6
  # of PSMs, UBE2N: 6
[6]
  # of PSMs, HIST1H4A . . .: 9
  # of PSMs, HSP90AB1: 9
Table 3 (head Avi-, text A3-Ub), DMSO 10
  # of PSMs, gene symbol printed as image P00010: 11
Table 3 (head Avi-, text A3-Ub), DMSO 14
  # of PSMs, HSP90AA1: 12
[7]
  # of PSMs, HSPA1B; HSPA1A: 6
  # of PSMs, HSPA8: 10
Table 3 (head Avi-, text A3-Ub), DMSO 23
  # of PSMs, gene symbol printed as image P00008: 17
Table 3 (head Avi-, text A3-Ub), DMSO 26
  # of PSMs, MCCC1: 24
Table 3 (head Avi-, text A3-Ub), DMSO 71
  # of PSMs, ACACA: 75
Table 3 (head Avi-, text A3-Ub), DMSO 106
  # of PSMs, PCCA: 103
Table 3 (head Avi-, text A3-Ub), DMSO 155
  # of PSMs, PC: 167
